Results on 32 compounds are retold here after publication PMC8539145, “Function and Characterization Analysis of BodoOBP8 from Bradysia odoriphaga (Diptera: Sciaridae) in the Recognition of Plant Volatiles and Sex Pheromones” (Insects, 2021).

Where “and” joins values, the source holds several entries; their conditions need not be identical. Equal entries are not always repeated. Where two headings read alike, the source gives them in different places.

In the assay the target is BodoOBP8 (Bradysia odoriphaga, UniProt A0A2S0X9G3). Kind of assay: Fluorescence competitive binding assay (1-NPN probe) with recombinant BodoOBP8. The method, then: For the binding assays, all test ligands (Table S1) were dissolved in methanol, and N-phenyl-1-naphthylamine (1-NPN) was used as a fluorescent probe.
Chain of BodoOBP8 (A0A2S0X9G3 entry or part of it): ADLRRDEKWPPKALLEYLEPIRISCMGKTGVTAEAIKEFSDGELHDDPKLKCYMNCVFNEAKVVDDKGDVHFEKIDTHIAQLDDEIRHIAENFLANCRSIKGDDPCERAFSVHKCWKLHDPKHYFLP
Where [1] appears, read: recombinant BodoOBP8, calculated from IC50 of 1-NPN displacement, read-out: Ki.
The mark [2] stands for this setting: recombinant BodoOBP8, displacement of 1-NPN, read-out: IC50.
Setting [3] is: Ki, recombinant BodoOBP8, calculated from IC50 of 1-NPN displacement.
Setting [4] is: pH 7.4, Figure 3B, read-out: Ki.

Usually Ki stands for a measure of affinity in units of concentration, obtained from inhibition or displacement. In general, IC50 refers to the point on the concentration scale where inhibition reaches its midpoint. Turning to `CC12CCC(CC1)C(C)(C)O2` [1,8-Cineole], under setting [1], the Ki was above 50 µM. For the same compound, under setting [2], the IC50 was above 50 µM.

For orientation: Kd means a measure of binding affinity in units of concentration. Consider `c1ccc(Nc2cccc3ccccc23)cc1` [1-NPN, N-phenyl-1-naphthylamine, reference compound], for which the Kd turned out to be 2.21 µM.

On to `CCCCC(C)=O` [2-Hexanone], for which the IC50 is above 50 µM. Moreover, the Ki under setting [3] was above 50 µM.

With `C=C(C)[C@H]1CC=C(C)CC1` [(R)-(+)-Limonene], under setting [1], the Ki is above 50 µM. Further, the IC50 under setting [2] is above 50 µM.

Regarding `CC(=O)c1ccccc1` [Acetophenone], under setting [1], the Ki was above 50 µM. Also, the IC50 under setting [2] is above 50 µM.

Regarding `O=Cc1ccccc1` [Benzaldehyde], the IC50 is above 50 µM. For the same compound, the Ki under setting [3] is above 50 µM.

Turning to `CCCCOC(=O)CCC(C)=O` [Butyl levulinate], the Ki under setting [1] is above 50 µM. Further, the IC50 under setting [2] is above 50 µM.

For the compound `Cc1ccc(C(C)C)cc1O` [Carvacrol], the IC50 was above 50 µM. For the same compound, the Ki under setting [3] is above 50 µM.

Consider `CC(C)=CCCC(C)CCO` (stereo not drawn) [Citronellol], for which the Ki under setting [1] is above 50 µM. In addition, under setting [2], the IC50 was above 50 µM.

Take `CCCCCCCCCC=O` [Decanal]: the Ki under setting [1] was above 50 µM. The IC50 under setting [2] is above 50 µM.

For the compound `C=CCSSCC=C` [Diallyl disulfide], the IC50 came to 10 µM. Besides, the Ki (Ki, pH 7.4, Figure 3B) is 4.04 µM. For the same compound, the Ki under setting [3] was 6.73 µM. In addition, the Ki (recombinant BodoOBP8, calculated from IC50 of 1-NPN displacement) was below 10 µM.

`CCCCCCCCCCCC` [Dodecane]: under setting [1], the Ki is above 50 µM. Further, under setting [2], the IC50 is above 50 µM.

`CCCCCCCCCCCC=O` [Dodecyl aldehyde]: the Ki under setting [1] was above 50 µM. Under setting [2], the IC50 was above 50 µM.

As to `CCCCCCC=O` [Heptanal], under setting [1], the Ki is above 50 µM. The IC50 under setting [2] was above 50 µM.

Turning to `CCCCCCCCCCCCCCCC` [Hexadecane], the Ki under setting [1] is above 50 µM. Also, the IC50 under setting [2] is above 50 µM.

As for `C=CC(C)(O)CCC=C(C)C` (stereo not drawn) [Linalool], the IC50 was above 50 µM. Besides, under setting [3], the Ki is above 50 µM.

With `C=CCSSC` [Methyl allyl disulfide], under setting [4], the Ki was 6.73 µM. Also, the IC50 under setting [2] is 8 µM.

`COC(=O)Cc1ccccc1` [Methyl phenylacetate]: the IC50 is above 50 µM. Also, the Ki under setting [3] was above 50 µM.

On to `COC(=O)c1ccccc1O` [Methyl salicylate], for which the IC50 is above 50 µM. Also, under setting [3], the Ki is above 50 µM.

As for `CCCCCCCCC=O` [Nonanal], the Ki under setting [1] was above 50 µM. Moreover, under setting [2], the IC50 was above 50 µM.

For the compound `CCCCCCCCC` [Nonane], the Ki under setting [1] is above 50 µM. Besides, the IC50 under setting [2] was above 50 µM.

Regarding `C=CC(C)=CCC=C(C)C` [Ocimene], the Ki under setting [1] is above 50 µM. In addition, the half-maximal inhibitory concentration (IC50) under setting [2] was above 50 µM.

Turning to `CCCCCCCC=O` [Octanal], the Ki under setting [1] is above 50 µM. In addition, the IC50 under setting [2] is above 50 µM.

For the compound `CCCCCCCCCCCCCC` [Tetradecane], the inhibition constant Ki under setting [1] was above 50 µM. Besides, the IC50 under setting [2] is above 50 µM.

For `CCCCC=O` [Valeric aldehyde], under setting [1], the Ki is above 50 µM. Under setting [2], the half-inhibitory concentration (IC50) is above 50 µM.

On to `CC/C=C\CCO` [cis-3-Hexen-1-ol], for which the IC50 was above 50 µM. In addition, the Ki under setting [3] was above 50 µM.

Regarding `CCCCCCCCCCCCCCCCC` [n-Heptadecane], the inhibitory constant (Ki) runs as follows: under setting [4], 4.04 µM; under setting [1], 4.04 µM and < 10 µM. In addition, the 50% inhibitory concentration (IC50) under setting [2] turned out to be 6 µM.

Turning to `CC(=O)/C=C/C1=C(C)CCCC1(C)C` [ß-Ionone], under setting [1], the Ki is above 50 µM. Also, the IC50 under setting [2] is above 50 µM.

`C=C1CC/C=C(/C)CC[C@@H]2[C@@H]1CC2(C)C` [ß-caryophyllene]: the Ki under setting [1] was above 50 µM. Besides, the IC50 under setting [2] was above 50 µM.

Consider `C=C1CCC2CC1C2(C)C` (stereo not drawn) [ß-pinene], for which the Ki under setting [1] is above 50 µM. Besides, the IC50 under setting [2] was above 50 µM.

Take `C/C1=C\CC/C(C)=C/CC(C)(C)/C=C/C1` [α-Humulene]: the Ki under setting [1] was above 50 µM. Moreover, under setting [2], the IC50 was above 50 µM.

Take `c1ccc2[nH]ccc2c1` [(H-11)Indole, Indole]: the IC50 is above 50 µM. Besides, under setting [3], the Ki is above 50 µM.
